Measured values published in the supplement of paper PMC10307832.

Columns and labels:
Experiment in all cases: relative viability (nuclei count vs DMSO), 5 days (fraction); higher = more cells survive
[1] = compound: CC1=C(C(=NN1)C)CC2=C(C3=C(S2)N(C(=O)N(C3=O)C)CC(C)C)C(=O)N4C[C@@H](CO4)O
Procedure, shortened: (§1)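 Cells of lung cancer lines were placed in 1536-well plates and kept overnight at 37 °C. Pinning then delivered five library-drug doses (not always all listed), spaced by √10, onto plates anchored with vehicle, and the cells were left 5 days without changing medium. One step fixed, permeabilised and stained them with Hoechst, and MetaXpress counted nuclei in 4× images. Viability, as a median over plates, is treated-well nuclei divided by vehicle-well nuclei, with acceptance only at control CV below 25% and at least one doubling.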

IDH-C35 = compound: Cc1ccccc1C(C(=O)NC1CCCCC1)N(C(=O)Cn1ccnc1C)c1cccc(F)c1 [IDH-C35]
Procedure, shortened: as §1

[2] = compound: CC1=C(C(=NN1)C)CC2=C(C3=C(S2)N(C(=O)N(C3=O)C)CC(C)C)C(=O)N4C[C@@H](CO4)O + CC1(C)CCC(c2ccc(Cl)cc2)=C(CN2CCN(c3ccc(C(=O)NS(=O)(=O)c4ccc(N[C@H](CCN5CCOCC5)CSc5ccccc5)c(S(=O)(=O)C(F)(F)F)c4)cc3)CC2)C1 [Navitoclax] (partner 0.5 µM)
Procedure, shortened: (§2)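 Lung cancer cell lines were pin-tool dosed in 1536-well plates on the day after seeding, with either a lone drug or a fixed anchor-drug dose plus five library-drug doses (not always all listed) in √10 steps. Nuclei were counted on 4× images after 5 days. Relative viability is the ratio of treated-well to vehicle-well nuclei counts, with each value a median of duplicate plates.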

[3] = compound: CC1=C(C(=NN1)C)CC2=C(C3=C(S2)N(C(=O)N(C3=O)C)CC(C)C)C(=O)N4C[C@@H](CO4)O + COc1cc2c(Oc3ccc(NC(=O)C4(C(=O)Nc5ccc(F)cc5)CC4)cc3F)ccnc2cc1OCCCN1CCOCC1 [Foretinib] (partner 0.25 µM)
Procedure, shortened: as §2

Row | Cell Line | relative viability ([1]; 0.0025 µM) | relative viability ([1]; 0.007906 µM) | relative viability ([1]; 0.025 µM) | relative viability ([1]; 0.07906 µM) | relative viability ([1]; 0.25 µM) | relative viability (IDH-C35; 0.08 µM) | relative viability (IDH-C35; 0.253 µM) | relative viability (IDH-C35; 0.8 µM) | relative viability (IDH-C35; 2.53 µM) | relative viability (IDH-C35; 8 µM) | relative viability ([2]; first compound 0.0025 µM) | relative viability ([2]; first compound 0.007906 µM) | relative viability ([2]; first compound 0.025 µM) | relative viability ([2]; first compound 0.07906 µM) | relative viability ([2]; first compound 0.25 µM) | relative viability ([3]; first compound 0.0025 µM) | relative viability ([3]; first compound 0.007906 µM) | relative viability ([3]; first compound 0.025 µM) | relative viability ([3]; first compound 0.07906 µM) | relative viability ([3]; first compound 0.25 µM)
1 | NCI-H1703 | 1.03 | 0.895 | 0.917 | 0.895 | 0.897 | 0.96 | 1.02 | 0.95 | 0.901 | 0.955 | 1.36 | 1.4 | 0.972 | 0.928 | 0.744 | 0.38 | 0.391 | 0.386 | 0.329 | 0.362
2 | PC-3 [JPC-3] | 1.1 | 1.05 | 1.01 | 1.04 | 1.07 | 1.04 | 1 | 1.04 | 1.08 | 1.04 | 0.898 | 0.795 | 0.83 | 0.827 | 0.906 | 1.14 | 1.01 | 1.05 | 1.02 | 1.08
3 | BEN | 0.885 | 0.949 | 0.735 | 0.788 | 0.865 | 0.964 | 0.97 | 0.904 | 0.972 | 1.01 | 0.0618 | 0.0913 | 0.0867 | 0.0968 | 0.0771 | 0.666 | 0.629 | 0.577 | 0.661 | 0.596
4 | NCI-H1666 | 1.09 | 0.97 | 1.01 | 0.983 | 1.02 | 1 | 0.956 | 0.965 | 1.06 | 1.04 | 0.969 | 0.954 | 1.01 | 1.14 | 1.1 | 0.93 | 0.995 | 0.897 | 0.94 | 1.03
5 | LC-2-ad | 0.982 | 0.93 | 0.956 | 1.04 | 1.04 | 0.993 | 1 | 0.966 | 0.701 | 0.898 | 0.459 | 0.461 | 0.463 | 0.481 | 0.58 | 0.897 | 0.836 | 0.911 | 1.06 | 1.08
6 | SK-LU-1 | 0.914 | 0.789 | 0.634 | 0.714 | 0.615 | 1.01 | 0.986 | 1.1 | 1.05 | 1.01 | 0.717 | 0.662 | 0.528 | 0.744 | 0.545 | 0.659 | 0.556 | 0.527 | 0.492 | 0.548
7 | ChaGo-K-1 | 0.989 | 0.98 | 0.901 | 0.969 | 1.06 | 0.994 | 0.941 | 0.993 | 0.966 | 1.02 | 0.996 | 0.903 |  | 1.21 | 1.5 | 0.886 | 0.979 | 0.888 | 0.914 | 0.968
8 | COR-L 105 | 0.952 | 0.976 | 0.897 | 0.897 | 1.02 | 0.897 | 0.921 | 0.926 | 0.863 | 0.91 | 0.969 | 0.768 | 0.682 | 0.561 | 0.657 | 1.1 | 0.899 | 0.974 | 1.03 | 1.06
9 | NCI-H1975 | 1.07 | 0.997 | 0.873 | 0.988 | 1.02 | 0.968 | 1.01 | 0.986 | 1.05 | 0.966 | 1.13 | 1.18 | 1.15 | 1.19 | 1.21 | 0.946 | 1.06 | 1 | 0.949 | 0.984
10 | Calu-6 | 1.04 | 1.01 | 0.982 | 1.03 | 1.03 | 1.05 | 0.968 | 1.03 | 0.997 | 0.937 | 0.925 | 0.827 | 0.805 | 0.906 | 0.892 | 0.984 | 0.813 | 0.715 | 0.809 | 0.897
11 | NCI-H1993 | 1.05 | 0.91 | 0.963 | 0.843 | 0.884 | 0.843 | 0.955 | 0.891 | 1.02 | 0.955 | 0.949 | 0.959 | 0.92 | 0.94 | 0.925 | 0.767 | 0.719 | 0.827 | 0.711 | 0.749
12 | RERF-LC-KJ | 1.01 | 1.07 | 0.985 | 0.98 | 1.06 | 0.962 | 0.929 | 1.03 | 1.01 | 0.943 | 1.18 | 0.99 | 1.01 | 0.713 | 0.897 | 0.866 | 0.942 | 0.909 | 0.886 | 0.935
13 | NCI-H23 | 1.01 | 1.05 | 0.867 | 0.975 | 1.09 | 1 | 1.04 | 0.95 | 0.806 | 0.859 | 0.908 | 0.904 | 0.807 | 1.02 | 0.901 | 1.05 | 0.992 | 0.965 | 1.07 | 1.16
14 | HCC-366 | 0.986 | 1.03 | 1.03 | 0.988 | 1.04 | 1.04 | 1.04 | 0.97 | 0.935 | 0.934 | 1.09 | 0.997 | 1.05 | 1.03 | 1.13 | 0.918 | 0.932 | 0.905 | 0.771 | 0.958
15 | EMC-BAC-2 | 1.07 | 1.11 | 0.898 | 0.995 | 1.05 | 0.962 | 0.988 | 1 | 0.987 | 1.03 | 1.16 | 1.14 | 1.16 | 1.16 | 1.38 | 1.04 | 1.09 | 1.07 | 1.08 | 1.04
16 | NCI-H2405 | 1.1 | 1.04 | 0.653 | 0.921 | 0.962 | 1.05 | 1 | 0.971 | 0.996 | 1.02 | 0.795 | 0.652 |  | 0.983 | 0.864 | 1.09 | 1.05 |  | 0.978 | 1.01
